Experimental data: patent US20240027453A1, “METHOD FOR DETECTION AND QUANTITATIVE MONITORING OF INFECTIONS WITH HERPESVIRUSES” (The Trustees of Princeton University, priority 2020, published 2024)
Like-named read-outs stand apart in the source and are kept apart here.

System: HCMV
Assay type: cell-based
Protocol: In example herpesvirus PRM assay methods shown herein, cell pellets were lysed in 2% SDS, 100 mM NaCl, 0.5 mM EDTA, 50 mM Tris, pH 8.2, and 50 μg of protein was reduced and alkylated with 25 mM TCEP and 50 mM CAM respectively for 20 min at 70° C. Proteins were then precipitated via methanol chloroform precipitation (Wessel & Flugg, Anal Biochem. 138(1):141-143, 1984), resuspended in 50 mM HEPES, pH 8.2 and digested overnight with trypsin (50:1 protein:enzyme w/w ratio). Digested peptides were desalted by SDB-RPS StageTip as previously described (Lum et al., Cell Syst., 7(6):[…], 2018; Greco et al., Methods Mol Biol 1410:39-63, 2016; Federspiel & Cristea, Methods Mol Biol., 1977:115-143, 2019).
Peptides (1.0 μg on column) were analyzed by LC-MS/MS using a Dionex Ultimate 3000 UHPLC coupled online to an EASYSpray ion source and a Q Exactive HF. Peptides were separated on an EASYSpray C18 column (75 μm×25 cm) heated to 50° C. using a linear gradient of 5% B to 32% B over 60 min at a flow rate of 250 nL/min and were ionized at 1.7 kv. Mobile phase A consisted of 0.1% FA in H2O and mobile phase B consisted of 0.1% FA, 2.9% H2O in ACN.
The PRM method was controlled by a peptide inclusion list with retention time windows of 6 min for selected precursor ions.
The PRM assay was developed and analyzed using the open-source software Skyline (Maclean et al., Bioinformatics 26(7):966-968, 2010). Summed area under the curve of 3-4 transitions per peptide was used for quantitation. Targeted peptides were normalized to host protein loading control peptides. Peptide values for each sample were scaled to the average of each peptide across all runs. The average of multiple peptides was used as the inferred value for the protein measurement when more than one peptide was quantified (Federspiel et al., PLoS Biol. 17(9):e3000437. Doi: 10.1371/journal.pbio.3000437). PRM quantitation data were graphed using the Python Seaborn and Matplotlib libraries.
MRC5 primary human fibroblasts (HFs) (ATCC CCL-171) were used as the model system for HSV-1 and HCMV infections and were cultured in complete growth medium (DMEM supplemented with 10% fetal bovine serum and 1% penicillin-streptomycin antibiotics) at 37° C. and 5% CO2. iSLK.219 cells harboring latent KSHV (a gift from Dr. Britt Glaunsinger, University of California, Berkeley) were grown in complete growth medium supplemented with 500 μg/ml hygromycin (ThermoFisher Scientific, 10687010) at 37° C. and 5% CO2. All cells were used for experiments within a maximum of 10 passages.
Wild type HSV-1 strain 17+ (a gift from Beate Sodeik, Hannover Medical School, Hannover, Germany) was propagated as previously described (Diner et al., 2015). Briefly, PO stocks were generated by electroporating pBAC-HSV-1 into U-2 OS cells. […] In a similar manner, wild type HCMV strain AD169 was produced from BAC electroporation into HFs and working stocks were propagated by infecting HFs at a low level. In both cases, cell-associated virus was released by sonication, combined with supernatant virus, then concentrated by ultracentrifugation (20,000 rpm, 2 hours, 4° C. with SW28 swinging bucket rotor [Beckman Coulter]) over a 10% ficoll (HSV-1) or 20% sorbitol (HCMV) cushion. Virus stock titers were determined by plaque assay for HSV-1 or tissue culture infectious dose (TCID50) for HCMV and infections were performed at a multiplicity of infection (MOI) of 3.
12 hours prior to virus infection or reactivation, cells were treated with either the small molecule drug or DMSO/PBS control at an equivalent volume. […] For infection cycles lasting longer than 24 hours, small molecule drugs were re-added to the cell culture medium every 24 hours. Upon collection, cells were rinsed with PBS, scraped into a microcentrifuge tube, pelleted by centrifugation, and rinsed again with PBS.

Nc1c(S(=O)(=O)c2ccccc2)c2nc3ccccc3nc2n1-c1ccc(F)cc1 [CAY10602]
GO (P16750) protein level (timepoint 72, L): 0.05989
IR11 (P16809) protein level (timepoint 72, L): 0.4344
MCP (P16729) protein level (timepoint 72, L): 0.02624
SCP (Q7M6N6) protein level (timepoint 72, L): 0.015
TRM2 (P16792) protein level (timepoint 72, L): 0.0795
UL22A (P16845) protein level (timepoint 72, L): 0.215
UL25 (P16761) protein level (timepoint 72, L): 0.096
UL29 (P16764) protein level (timepoint 72, L): 0.506
UL30 (P16765) protein level (timepoint 72, L): 0.1431
UL31 (P16848) protein level (timepoint 72, L): 0.1447
UL43 (P16781) protein level (timepoint 72, L): 0.03176
UL52 (P16793) protein level (timepoint 72, L): 0.1191
UL76 (P16725) protein level (timepoint 72, L): 0.03192
UL80 (P16753) protein level (timepoint 72, L): 0.06052
UL82 (P06726) protein level (timepoint 72, L): 0.1042
UL87 (P16730) protein level (timepoint 72, L): 0.09029
UL88 (P16731) protein level (timepoint 72, L): 0.1686
UL94 (P16800) protein level (timepoint 72, L): 0.1145
UL99 (P13200) protein level (timepoint 72, L): 0.05513
UL103 (P16734) protein level (timepoint 72, L): 0.09275
UL117 (P16770) protein level (timepoint 72, L): 0.3151
gH (P12824) protein level (timepoint 72, L): 0.1032
gL (P16832) protein level (timepoint 72, L): 0.08246
gM (P16733) protein level (timepoint 72, L): 0.06242
gN (P16795) protein level (timepoint 72, L): 0.1122
IR10 (P16808) protein level (timepoint 72, LL): 0.03558
IR12 (P16810) protein level (timepoint 72, LL): 0.4497
TRM3 (P16732) protein level (timepoint 72, LL): 0.03658
TRX1 (P16783) protein level (timepoint 72, LL): 0.02099
TRX2 (P16728) protein level (timepoint 72, LL): 0.02193
UL24 (P16760) protein level (timepoint 72, LL): 0.1166
UL40 (P16780) protein level (timepoint 72, LL): 0.4727
UL47 (P16784) protein level (timepoint 72, LL): 0.06008
UL49 (P16786) protein level (timepoint 72, LL): 0.1643
UL69 (P16749) protein level (timepoint 72, LL): 0.2062
UL70 (P17149) protein level (timepoint 72, LL): 0.4194
UL83 (P06725) protein level (timepoint 72, LL): 0.02048
UL132 (P69338) protein level (timepoint 72, LL): 0.1287
US15 (P09718) protein level (timepoint 72, LL): 0.4326
CVC2 (P16726) protein level (timepoint 96, DE): 0.1714
DBP (P17147) protein level (timepoint 96, DE): 0.7941
HELI (P16736) protein level (timepoint 96, DE): 0.8017
IR01 (P09710) protein level (timepoint 96, DE): 0.4575
NEC1 (P16794) protein level (timepoint 96, DE): 0.0869
NEC2 (P16791) protein level (timepoint 96, DE): 0.2886
RIR1 (P16782) protein level (timepoint 96, DE): 0.2098
TRM1 (P16724) protein level (timepoint 96, DE): 0.3134
UL4 (P17146) protein level (timepoint 96, DE): 0.2128
UL26 (P16762) protein level (timepoint 96, DE): 0.2828
UL32 (P08318) protein level (timepoint 96, DE): 0.1168
UL34 (P16812) protein level (timepoint 96, DE): 0.2231
UL35 (P16766) protein level (timepoint 96, DE): 0.1252
UL38 (P16779) protein level (timepoint 96, DE): 0.6672
UL44 (P16790) protein level (timepoint 96, DE): 0.176
UL48 (P16785) protein level (timepoint 96, DE): 0.2807
UL54 (P08546) protein level (timepoint 96, DE): 0.9075
UL71 (P16823) protein level (timepoint 96, DE): 0.4754
UL78 (P16751) protein level (timepoint 96, DE): 0.4235
UL84 (P16727) protein level (timepoint 96, DE): 0.2328
UL95 (P16801) protein level (timepoint 96, DE): 0.312
UL96 (P16787) protein level (timepoint 96, DE): 0.4112
UL97 (P16788) protein level (timepoint 96, DE): 0.3037
UL98 (P16789) protein level (timepoint 96, DE): 0.4674
UL102 (P16827) protein level (timepoint 96, DE): 0.9006
UL104 (P16735) protein level (timepoint 96, DE): 0.3067
UL112/UL113 (P17151) protein level (timepoint 96, DE): 0.5114
UL114 (P16769) protein level (timepoint 96, DE): 0.7883
UL119/UL118 (P16739) protein level (timepoint 96, DE): 0.6695
UL128 (P16837) protein level (timepoint 96, DE): 0.1937
US8 (P09730) protein level (timepoint 96, DE): 0.6801
US9 (P09729) protein level (timepoint 96, DE): 0.7084
US12 (P09721) protein level (timepoint 96, DE): 0.4505
US13 (P09720) protein level (timepoint 96, DE): 0.8895
US14 (P09719) protein level (timepoint 96, DE): 0.3447
US18 (P69334) protein level (timepoint 96, DE): 0.9283
US22 (P09722) protein level (timepoint 96, DE): 0.6231
US23 (P09701) protein level (timepoint 96, DE): 0.5304
US24 (P09700) protein level (timepoint 96, DE): 0.485
US34 (P09709) protein level (timepoint 96, DE): 0.2125
gB (P06473) protein level (timepoint 96, DE): 0.285
IRS1 (P09715) protein level (timepoint 96, IE): 0.7821
TRS1 (P09695) protein level (timepoint 96, IE): 0.7146
UL13 (P16755) protein level (timepoint 96, IE): 0.2986
UL36 (P16767) protein level (timepoint 96, IE): 0.5836
UL37 (P16778) protein level (timepoint 96, IE): 0.8017
UL122 (P19893) protein level (timepoint 96, IE): 0.1642
UL123 (P13202) protein level (timepoint 96, IE): 0.4758
CVC1 (P16799) protein level (timepoint 96, L): 0.2252
GO (P16750) protein level (timepoint 96, L): 0.2443
IR11 (P16809) protein level (timepoint 96, L): 0.9075
MCP (P16729) protein level (timepoint 96, L): 0.1482
SCP (Q7M6N6) protein level (timepoint 96, L): 0.1246
TRM2 (P16792) protein level (timepoint 96, L): 0.19
UL22A (P16845) protein level (timepoint 96, L): 0.3485
UL25 (P16761) protein level (timepoint 96, L): 0.2353
UL29 (P16764) protein level (timepoint 96, L): 0.6674
UL30 (P16765) protein level (timepoint 96, L): 0.2355
UL31 (P16848) protein level (timepoint 96, L): 0.2462
UL43 (P16781) protein level (timepoint 96, L): 0.05313
UL52 (P16793) protein level (timepoint 96, L): 0.3224
UL76 (P16725) protein level (timepoint 96, L): 0.1513
UL79 (P16752) protein level (timepoint 96, L): 0.3299
UL80 (P16753) protein level (timepoint 96, L): 0.2674
UL82 (P06726) protein level (timepoint 96, L): 0.2566
UL87 (P16730) protein level (timepoint 96, L): 0.2646
UL88 (P16731) protein level (timepoint 96, L): 0.3926
UL94 (P16800) protein level (timepoint 96, L): 0.2776
UL99 (P13200) protein level (timepoint 96, L): 0.1753
UL103 (P16734) protein level (timepoint 96, L): 0.2489
